From ChEMBL document CHEMBL5352419, “Design, synthesis, and biological evaluation of tetrahydroquinoline amphiphiles as membrane-targeting antimicrobials against pathogenic bacteria and fungi” (Eur J Med Chem, 2022)
Values after ≈ are worked out from the molar mass of the structure shown. Active and inactive are the calls of the source. No cut-off for these calls is given here.

Tests used:
Candida albicans [1] = assay: Antimicrobial activity against Candida albicans CMCC98001 assessed as fungal growth inhibition incubated for 48 hrs by Sabouraud Dextrose broth based dilution assay; format: functional
Staphylococcus aureus [2] = assay: Antimicrobial activity against Staphylococcus aureus ATCC29213 assessed as bacterial growth inhibition incubated for 24 hrs by Muller Hinton broth based dilution assay; format: functional
Escherichia coli [3] = assay: Antimicrobial activity against Escherichia coli ATCC25922 assessed as bacterial growth inhibition incubated for 24 hrs by Muller Hinton broth based dilution assay; format: functional
[4] = Hemolytic activity in rabbit RBC incubated for 1 hr by absorbance based microplate reader assay; format: toxicity, cell-based, Oryctolagus cuniculus, Erythrocyte; details: rabbit red blood cells (erythrocytes)
Acinetobacter baumannii [5] = assay: Antimicrobial activity against Acinetobacter baumannii ATCC17978 assessed as bacterial growth inhibition incubated for 24 hrs by Muller Hinton broth based dilution assay; format: functional
Acinetobacter baumannii [6] = assay: Antimicrobial activity against Acinetobacter baumannii R2889 assessed as bacterial growth inhibition incubated for 24 hrs by Muller Hinton broth based dilution assay; format: functional
Klebsiella pneumoniae = assay: Antimicrobial activity against Klebsiella pneumoniae ATCC14581 assessed as bacterial growth inhibition incubated for 24 hrs by Muller Hinton broth based dilution assay; format: functional
Staphylococcus aureus [7] = assay: Antimicrobial activity against Staphylococcus aureus ATCC29213 assessed as bacterial growth inhibition incubated for 24 hrs in presence of 3220 ug/mL Na+ by Muller Hinton broth based dilution assay; format: functional
Candida albicans [8] = assay: Antimicrobial activity against Candida albicans ATCC10231 assessed as fungal growth inhibition incubated for 48 hrs in presence of 3220 ug/mL Na+ by Sabouraud Dextrose broth based dilution assay; format: functional
Candida albicans [9] = assay: Antimicrobial activity against Candida albicans ATCC10231 assessed as fungal growth inhibition incubated for 48 hrs in presence of 175.5 ug/mL K+ by Sabouraud Dextrose broth based dilution assay; format: functional
Staphylococcus aureus [10] = assay: Antimicrobial activity against Staphylococcus aureus ATCC29213 assessed as bacterial growth inhibition incubated for 24 hrs in presence of 100 ug/mL Ca2+ by Muller Hinton broth based dilution assay; format: functional
Candida albicans [11] = assay: Antimicrobial activity against Candida albicans ATCC10231 assessed as fungal growth inhibition incubated for 48 hrs in presence of 100 ug/mL Ca2+ by Sabouraud Dextrose broth based dilution assay; format: functional
Staphylococcus aureus [12] = assay: Induction of drug resistance in Staphylococcus aureus ATCC29213 assessed as change in MIC at sub-inhibitory concentration incubated for 21 to 22 passages; format: functional
Cell membrane [13] = assay: Disruption of membrane integrity in Staphylococcus aureus ATCC29213 assessed as increase in fluorescence intensity at 1 to 8 times of MIC measured for 1 hr by SYTOX green dye based fluorescence analysis
Cell membrane [14] = assay: Disruption of membrane integrity in Escherichia coli ATCC25922 assessed as increase in fluorescence intensity at 1 to 8 times of MIC measured for 1 hr by SYTOX green dye based fluorescence analysis
Cell membrane [15] = assay: Disruption of membrane integrity in Escherichia coli ATCC25922 assessed as red fluorescence at 8 times of MIC incubated for 2 hrs under dark condition by SYTO 9 and PI staining based laser confocal microscopy analysis
Cell membrane [16] = assay: Induction of outer membrane permeabilization in Escherichia coli ATCC25922 assessed as increase in fluorescence intensity at 1 to 8 times of MIC measured for 1 hrs by NPN uptake assay
Cell membrane [17] = assay: Disruption of outer membrane integrity in Acinetobacter baumannii ATCC17978
Staphylococcus aureus [18] = assay: Antibiofilm activity against Staphylococcus aureus ATCC29213 assessed as inhibition of biofilm formation at 0.39 ug/mL incubated for 24 hrs by crystal violet staining based analysis relative to control; format: functional
Escherichia coli [19] = assay: Antibiofilm activity against Escherichia coli ATCC25922 assessed as inhibition of biofilm formation at 0.78 ug/mL incubated for 24 hrs by crystal violet staining based analysis relative to control; format: functional
Escherichia coli [20] = assay: Antibiofilm activity against Escherichia coli ATCC25922 assessed as inhibition of biofilm formation at 6.25 ug/mL incubated for 24 hrs by crystal violet staining based analysis relative to control; format: functional
Staphylococcus aureus [21] = assay: Disruption of preformed biofilm in Staphylococcus aureus ATCC29213 assessed as residual preformed biofilm at 0.39 ug/mL incubated for 24 hrs by crystal violet staining based analysis relative to control; format: functional; details: dose 0.39 µg/ml
Staphylococcus aureus [22] = assay: Disruption of preformed biofilm in Staphylococcus aureus ATCC29213 assessed as residual preformed biofilm at 0.78 ug/mL incubated for 24 hrs by crystal violet staining based analysis relative to control; format: functional; details: dose 0.78 µg/ml
Staphylococcus aureus [23] = assay: Disruption of preformed biofilm in Staphylococcus aureus ATCC29213 assessed as residual preformed biofilm at 3.125 ug/mL incubated for 24 hrs by crystal violet staining based analysis relative to control; format: functional; details: dose 3.125 µg/ml
Staphylococcus aureus [24] = assay: Disruption of preformed biofilm in Staphylococcus aureus ATCC29213 assessed as residual preformed biofilm at 6.25 ug/mL incubated for 24 hrs by crystal violet staining based analysis relative to control; format: functional; details: dose 6.25 µg/ml
Staphylococcus aureus [25] = assay: Disruption of preformed biofilm in Staphylococcus aureus ATCC29213 assessed as residual preformed biofilm at 12.5 ug/mL incubated for 24 hrs by crystal violet staining based analysis relative to control; format: functional; details: dose 12.5 µg/ml
Escherichia coli [26] = assay: Disruption of preformed biofilm in Escherichia coli ATCC25922 assessed as residual preformed biofilm at […] ug/mL incubated for 24 hrs by crystal violet staining based analysis relative to control; format: functional; details: dose […] microg/ml, 1.56 ug/mL
Escherichia coli [27] = assay: Disruption of preformed biofilm in Escherichia coli ATCC25922 assessed as residual preformed biofilm at 25 ug/mL incubated for 24 hrs by crystal violet staining based analysis relative to control; format: functional; details: dose 25 µg/ml
[28] = Cytotoxicity against mouse J774.A1 cells assessed as viable cells at 12.5 ug/mL incubated for 24 hrs by CCK-8 assay relative to control; format: toxicity, cell-based; details: at 12.5 µg/mL, read-out: Activity
[29] = Cytotoxicity against mouse J774.A1 cells assessed as viable cells at 25 ug/mL incubated for 24 hrs by CCK-8 assay relative to control; format: toxicity, cell-based; details: at 25 µg/mL, read-out: Activity
[30] = Cytotoxicity against mouse NCTC clone 929 cells assessed as viable cells at 3.125 ug/mL incubated for 24 hrs by CCK-8 assay relative to control; format: toxicity, cell-based; details: NCTC clone 929 (L929) cells, at 3.125 µg/mL, read-out: Activity
[31] = Cytotoxicity against mouse NCTC clone 929 cells assessed as viable cells at 50 ug/mL incubated for 24 hrs by CCK-8 assay relative to control; format: toxicity, cell-based; details: NCTC clone 929 (L929) cells, at 50 µg/mL, read-out: Activity
[32] = Cytotoxicity against mouse corneal epithelial cells assessed as viable cells at 3.125 ug/mL incubated for 24 hrs by CCK-8 assay relative to control; format: toxicity, cell-based, Corneal epithelial cell; details: at 3.125 µg/mL, read-out: Activity
[33] = Cytotoxicity against mouse corneal epithelial cells assessed as viable cells at 6.25 ug/mL incubated for 24 hrs by CCK-8 assay relative to control; format: toxicity, cell-based, Corneal epithelial cell; details: at 6.25 µg/mL, read-out: Activity
[34] = Cytotoxicity against mouse corneal epithelial cells assessed as viable cells at 12.5 ug/mL incubated for 24 hrs by CCK-8 assay relative to control; format: toxicity, cell-based, Corneal epithelial cell; details: at 12.5 µg/mL, read-out: Activity

Row | SMILES | MIC (Candida albicans [1]) | MIC (Staphylococcus aureus [2]) | MIC (Escherichia coli [3]) | HC50 at 1 h [4] | MIC (Acinetobacter baumannii [5]) | MIC (Acinetobacter baumannii [6]) | MIC (Klebsiella pneumoniae) | MIC (Staphylococcus aureus [7]) | MIC (Candida albicans [8]) | MIC (Candida albicans [9]) | MIC (Staphylococcus aureus [10]) | MIC (Candida albicans [11]) | Activity (Staphylococcus aureus [12]) | Activity (Cell membrane [13]) | Activity (Cell membrane [14]) | Activity (Cell membrane [15]) | Activity (Cell membrane [16]) | Activity (Cell membrane [17]) | inhibition at 0.39 µg/mL (Staphylococcus aureus [18]) | inhibition at 0.78 µg/mL (Escherichia coli [19]) | also measured
1 | CC(C)=CCN1CCCc2cc(OCCCCCCCCNC(=N)N)ccc21 | 0.78 µg/mL (≈ 2.02 µM) | 1.56 µg/mL (≈ 4.04 µM) | 3.12 µg/mL (≈ 8.08 µM) | > 200 µg/mL | 3.12 µg/mL (≈ 8.08 µM) | 3.12 µg/mL (≈ 8.08 µM) | 3.12 µg/mL (≈ 8.08 µM) | 0.78 µg/mL | 0.78 µg/mL | 0.78 µg/mL | 0.78 µg/mL | 1.56 µg/mL | inactive | Dose-Dependent Effect | Dose-Dependent Effect | Active | Active | Active | 50.2% | 32.2% | inhibition at 6.25 µg/mL (Escherichia coli [20]): 101%; Activity (Staphylococcus aureus [21]): 80.76%; Activity (Staphylococcus aureus [22]): 70.52%; Activity (Staphylococcus aureus [23]): 29.55%; Activity (Staphylococcus aureus [24]): 10.5%; Activity (Staphylococcus aureus [25]): 7.12%; Activity (Escherichia coli [26]): 85.82%; Activity (Escherichia coli [27]): 4.34%; viability at 24 h, 12.5 ug/mL [28]: 90%; viability at 24 h, 25 ug/mL [29]: 58.8%; viability at 24 h, 3.125 ug/mL [30]: 95.5%; viability at 24 h, 50 ug/mL [31]: 29.9%; viability at 24 h, 3.125 ug/mL [32]: 99.7%; viability at 24 h, 6.25 ug/mL [33]: 93.6%; viability at 24 h, 12.5 ug/mL [34]: 87.6%
2 | CCCCCCCCCN1CCCc2cc(OCCCCNC(=N)N)ccc21 | 0.78 µg/mL (≈ 2.01 µM) | 1.56 µg/mL (≈ 4.01 µM) | 1.56 µg/mL (≈ 4.01 µM) | > 200 µg/mL | 1.56 µg/mL (≈ 4.01 µM) | 3.12 µg/mL (≈ 8.04 µM) | 1.56 µg/mL (≈ 4.01 µM) | 0.78 µg/mL | 1.56 µg/mL | 1.56 µg/mL | 0.78 µg/mL | 1.56 µg/mL | inactive | Dose-Dependent Effect | Dose-Dependent Effect | Active | Active | Active | 65.2% | 49.9% | inhibition at 6.25 µg/mL (Escherichia coli [20]): 100%; Activity (Staphylococcus aureus [21]): 81.8%; Activity (Staphylococcus aureus [22]): 71.31%; Activity (Staphylococcus aureus [23]): 10.76%; Activity (Staphylococcus aureus [24]): 4.69%; Activity (Staphylococcus aureus [25]): 0.3%; Activity (Escherichia coli [26]): 72.32%; Activity (Escherichia coli [27]): 1.67%; viability at 24 h, 12.5 ug/mL [28]: 91.9%; viability at 24 h, 25 ug/mL [29]: 72.6%; viability at 24 h, 3.125 ug/mL [30]: 95.5%; viability at 24 h, 50 ug/mL [31]: 23.7%; viability at 24 h, 3.125 ug/mL [32]: 95.3%; viability at 24 h, 6.25 ug/mL [33]: 88.9%; viability at 24 h, 12.5 ug/mL [34]: 78%
